Data reported in the NIST ThermoML archive (doi:10.1016/j.jct.2017.12.023).

Assay: xn = mol fraction of the nth substance listed
Details: 100 kPa, Liquid; for viscosity: Concentric cylinders viscometry; for mass density: Vibrating tube method

CCOS(=O)(=O)[O-].CCn1cc[n+](C)c1 [1-ethyl-3-methylimidazolium ethyl sulfate] + CN1CCCC1=O
Details | mass density [kg/m3] | viscosity [mPa·s]
288.15 K, x1 = 0.1009 | 1079.2 | 3.992
288.15 K, x1 = 0.2012 | 1111.89 | 7.313
288.15 K, x1 = 0.3021 | 1138.72 | 12.42
288.15 K, x1 = 0.4012 | 1160.76 | 19.71
288.15 K, x1 = 0.4973 | 1178.79 | 29.14
288.15 K, x1 = 0.596 | 1194.97 | 42.09
288.15 K, x1 = 0.6998 | 1209.56 | 59.32
288.15 K, x1 = 0.7961 | 1221.74 | 79
288.15 K, x1 = 0.8821 | 1231.55 | 104.25
288.15 K, x1 = 1 | 1243.07 | 155.55
293.15 K, x1 = 0.1009 | 1074.95 | 3.554
293.15 K, x1 = 0.2012 | 1107.79 | 6.338
293.15 K, x1 = 0.3021 | 1134.75 | 10.51
293.15 K, x1 = 0.4012 | 1156.89 | 16.36
293.15 K, x1 = 0.4973 | 1175.02 | 23.79
293.15 K, x1 = 0.596 | 1191.28 | 33.7
293.15 K, x1 = 0.6998 | 1205.95 | 46.73
293.15 K, x1 = 0.7961 | 1218.2 | 61.57
293.15 K, x1 = 0.8821 | 1228.07 | 80.25
293.15 K, x1 = 1 | 1239.66 | 117.88
298.15 K, x1 = 0.1009 | 1070.72 | 3.21
298.15 K, x1 = 0.2012 | 1103.71 | 5.637
298.15 K, x1 = 0.3021 | 1130.79 | 9.181
298.15 K, x1 = 0.4012 | 1153.04 | 14.03
298.15 K, x1 = 0.4973 | 1171.26 | 20.08
298.15 K, x1 = 0.596 | 1187.6 | 27.95
298.15 K, x1 = 0.6998 | 1202.35 | 38.08
298.15 K, x1 = 0.7961 | 1214.66 | 49.4
298.15 K, x1 = 0.8821 | 1224.59 | 63.39
298.15 K, x1 = 1 | 1236.27 | 91.26
303.15 K, x1 = 0.1009 | 1066.49 | 2.908
303.15 K, x1 = 0.2012 | 1099.65 | 5.01
303.15 K, x1 = 0.3021 | 1126.85 | 8.026
303.15 K, x1 = 0.4012 | 1149.22 | 12.06
303.15 K, x1 = 0.4973 | 1167.52 | 17
303.15 K, x1 = 0.596 | 1183.95 | 23.38
303.15 K, x1 = 0.6998 | 1198.77 | 31.46
303.15 K, x1 = 0.7961 | 1211.15 | 40.33
303.15 K, x1 = 0.8821 | 1221.13 | 51.1
303.15 K, x1 = 1 | 1232.87 | 72.1
308.15 K, x1 = 0.1009 | 1062.28 | 2.649
308.15 K, x1 = 0.2012 | 1095.59 | 4.488
308.15 K, x1 = 0.3021 | 1122.93 | 7.071
308.15 K, x1 = 0.4012 | 1145.41 | 10.47
308.15 K, x1 = 0.4973 | 1163.8 | 14.56
308.15 K, x1 = 0.596 | 1180.31 | 19.81
308.15 K, x1 = 0.6998 | 1195.21 | 26.22
308.15 K, x1 = 0.7961 | 1207.65 | 33.3
308.15 K, x1 = 0.8821 | 1217.69 | 41.58
308.15 K, x1 = 1 | 1229.49 | 57.98
313.15 K, x1 = 0.1009 | 1058.09 | 2.432
313.15 K, x1 = 0.2012 | 1091.55 | 4.013
313.15 K, x1 = 0.3021 | 1119.03 | 6.231
313.15 K, x1 = 0.4012 | 1141.61 | 9.114
313.15 K, x1 = 0.4973 | 1160.1 | 12.5
313.15 K, x1 = 0.596 | 1176.69 | 16.76
313.15 K, x1 = 0.6998 | 1191.67 | 22.04
313.15 K, x1 = 0.7961 | 1204.17 | 27.72
313.15 K, x1 = 0.8821 | 1214.27 | 34.42
313.15 K, x1 = 1 | 1226.13 | 47.26
318.15 K, x1 = 0.1009 | 1053.91 | 2.231
318.15 K, x1 = 0.2012 | 1087.53 | 3.668
318.15 K, x1 = 0.3021 | 1115.14 | 5.615
318.15 K, x1 = 0.4012 | 1137.84 | 8.113
318.15 K, x1 = 0.4973 | 1156.42 | 11
318.15 K, x1 = 0.596 | 1173.09 | 14.57
318.15 K, x1 = 0.6998 | 1188.15 | 18.93
318.15 K, x1 = 0.7961 | 1200.71 | 23.58
318.15 K, x1 = 0.8821 | 1210.86 | 29
318.15 K, x1 = 1 | 1222.79 | 39.25
323.15 K, x1 = 0.1009 | 1049.74 | 2.061
323.15 K, x1 = 0.2012 | 1083.52 | 3.344
323.15 K, x1 = 0.3021 | 1111.25 | 5.053
323.15 K, x1 = 0.4012 | 1134.08 | 7.216
323.15 K, x1 = 0.4973 | 1152.75 | 9.678
323.15 K, x1 = 0.596 | 1169.51 | 12.7
323.15 K, x1 = 0.6998 | 1184.64 | 16.34
323.15 K, x1 = 0.7961 | 1197.26 | 20.2
323.15 K, x1 = 0.8821 | 1207.47 | 24.63
323.15 K, x1 = 1 | 1219.46 | 32.94
328.15 K, x1 = 0.1009 | 1045.59 | 1.912
328.15 K, x1 = 0.2012 | 1079.52 | 3.064
328.15 K, x1 = 0.3021 | 1107.38 | 4.575
328.15 K, x1 = 0.4012 | 1130.34 | 6.458
328.15 K, x1 = 0.4973 | 1149.1 | 8.585
328.15 K, x1 = 0.596 | 1165.95 | 11.16
328.15 K, x1 = 0.6998 | 1181.15 | 14.23
328.15 K, x1 = 0.7961 | 1193.83 | 17.46
328.15 K, x1 = 0.8821 | 1204.1 | 21.14
328.15 K, x1 = 1 | 1216.16 | 27.96
333.15 K, x1 = 0.1009 | 1041.42 | 1.782
333.15 K, x1 = 0.2012 | 1075.53 | 2.804
333.15 K, x1 = 0.3021 | 1103.53 | 4.154
333.15 K, x1 = 0.4012 | 1126.61 | 5.808
333.15 K, x1 = 0.4973 | 1145.47 | 7.681
333.15 K, x1 = 0.596 | 1162.4 | 9.893
333.15 K, x1 = 0.6998 | 1177.67 | 12.51
333.15 K, x1 = 0.7961 | 1190.42 | 15.27
333.15 K, x1 = 0.8821 | 1200.75 | 18.36
333.15 K, x1 = 1 | 1212.86 | 24.09
